pIC50: −log10 of the molar value.
Assays:
[1] = system: Dox-inducible secondary mouse embryonic fibroblasts (MEFs); test: Direct reprogramming of fibroblasts into definitive endoderm-like cells (Sox17/Foxa2); assay type: cell-based; settings: treatment in first two steps
Method: To extend and test the iPSC-factor-based lineage-specific reprogramming paradigm to endoderm, a two-step process was first devised to directly reprogram secondary MEF cells into definitive endoderm-like cells (DELCs). The first step (step I) involved culturing secondary MEF cells in media (Med-I) that is supplemented with 4 μg/ml Dox to initiate epigenetic activation. The second step (step II) was culturing the epigenetically activated cells in Med-II supplemented with 50 ng/ml Activin A and 1 mM LiCl (hereafter referred to as Activin/Li). […] Hereafter these Sox17/Foxa2 double-positive cells are referred to as definitive endoderm-like cells (DELCs).
To test this hypothesis, conditions were evaluated in which definitive endoderm induction factors (Activin/Li) were added to fibroblasts either after (Approach-I) or during (Approach II) iPSC factor expression, using Sox17 and Foxa2 expression as a measure of DELC induction (FIG. 1A).

[2] = system: definitive endoderm-like cells (DELCs); test: Induction of pancreatic progenitor-like cells from DELCs (Pdx1/Nkx6.1 staining); assay type: cell-based, mouse; settings: 400-compound collection; confirmed in larger-well cultures
Method: At the end of treatment, lineage specific markers were analyzed by immunostaining and/or real-time.
Primary antibodies used were Sox17 (R&D), Foxa2 (Millipore), Pdx1 (R&D), Hnf6 (Santa Cruz), Pax6 (Covance), Sox9 (Santa Cruz), Nkx6.1 (Developmental Studies Hybridoma Bank), Insulin (Dako), Glucagon (Sigma), Somatostatin (Abeam), Amylase (Abeam), and CK19 (Abcam). Nuclei were visualized by DAPI (Sigma-Aldrich) staining Images were captured using a Nikon Eclipse TE2000-U microscope.
An available drug collection of 400 compounds in the 48well format was screened to identify small molecules that induce high percentages of Pdx 1^+/NKx6.1^+ cells in DELC populations. Med-III medium (DMEM supplemented with 1 kB27, 2 mM GLUTAMAX™) was used as the basal condition and double staining of Pdx1 and Nkx 6.1 at 4 days post-induction was used as the readout.

[3] = system: pancreatic progenitor-like cells (PPLCs); test: Maturation of PPLCs into pancreatic-like cells (insulin/Pdx1, day 25); settings: 5 μM SB203580 or 280 μM pVc used individually
[4] = system: Dox-inducible secondary mouse embryonic fibroblasts (MEFs); test: Pdx1+/Nkx6.1+ colony number on day 16 after small molecules in first/second step; settings: 1 μM Bix-01294 D0 to D6; 280 μM pVc D0 to D12; readout day 16
[5] = target: p38 MAPK (Homo sapiens, UniProt Q16539); settings: read-out: IC50 for p38 MAPK; cited from earlier work
[6] = target: T1, Axl (Homo sapiens, UniProt P30530); settings: 1 μM; cited from earlier work
T1 sequence (P30530 26-894): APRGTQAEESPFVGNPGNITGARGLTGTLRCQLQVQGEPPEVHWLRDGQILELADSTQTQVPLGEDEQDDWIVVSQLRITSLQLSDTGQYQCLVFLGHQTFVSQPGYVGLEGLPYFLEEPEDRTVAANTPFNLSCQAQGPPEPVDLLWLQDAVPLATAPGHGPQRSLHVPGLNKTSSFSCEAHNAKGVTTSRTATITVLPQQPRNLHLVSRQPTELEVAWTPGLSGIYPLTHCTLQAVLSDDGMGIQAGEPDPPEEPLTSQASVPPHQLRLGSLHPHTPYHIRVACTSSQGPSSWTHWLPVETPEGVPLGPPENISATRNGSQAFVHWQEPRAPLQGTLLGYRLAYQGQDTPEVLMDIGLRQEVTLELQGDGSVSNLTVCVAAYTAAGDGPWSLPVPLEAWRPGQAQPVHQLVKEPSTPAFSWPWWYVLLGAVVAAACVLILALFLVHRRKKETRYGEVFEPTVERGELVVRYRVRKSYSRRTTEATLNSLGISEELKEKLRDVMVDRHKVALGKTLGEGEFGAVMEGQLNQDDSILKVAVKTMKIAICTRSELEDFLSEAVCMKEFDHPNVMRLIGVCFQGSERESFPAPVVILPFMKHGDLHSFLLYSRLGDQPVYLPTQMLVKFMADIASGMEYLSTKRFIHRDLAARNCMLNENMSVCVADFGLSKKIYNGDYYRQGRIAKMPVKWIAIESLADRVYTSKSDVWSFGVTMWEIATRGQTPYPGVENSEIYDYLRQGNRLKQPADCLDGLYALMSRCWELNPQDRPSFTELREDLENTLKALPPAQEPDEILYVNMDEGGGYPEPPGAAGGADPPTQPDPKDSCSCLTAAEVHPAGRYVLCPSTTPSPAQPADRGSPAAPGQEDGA

[7] = system: HDAC activity in HeLa extracts; settings: read-out: IC50 for inhibition of HDAC activity; cited from earlier work
[8] = system: pancreatic endodermal progenitor cells (cPE cells); test: Maturation of cPE cells into C-peptide positive cells, chemical screen; settings: added individually to basal pancreatic differentiation media
[9] = system: pancreatic endodermal progenitor (cPE) cells; test: Protocol 2 maturation of cPE cells into cPB cells (INSULIN mRNA, C-peptide cells)
[10] = system: Src-dependent cell proliferation; settings: cited from earlier work
[11] = system: histone deacetylases (HDACs); settings: isoform not stated; read-out: IC50 (histone deacetylase); cited from earlier work
[12] = target: γ-secretase; settings: read-out: IC50 for total β-amyloid; cited from earlier work
[13] = system: presenilase; settings: higher concentrations (20-400 μM); cited from earlier work
[14] = system: MEL1 INS GFP/W hESC spheres; test: hESC suspension differentiation, flow cytometry of PDX1 and NKX6.1; assay type: cell-based, human; settings: day 9.5
From the text: Treatments consisted of combinations of Cyclopamine (C), Noggin (N), and retinoic acid (R) during days 6-8, followed by subdivision of each condition into three treatment groups during day 9-9.5. Group 1) continuation of day 6-8 treatment; Group 2) treatment with EGF and KGF (EK); Group 3) treatment with EGF, KGF, and Noggin (EKN). […] Data shown are representatives of results obtained in two independent experiments. […] FIG. 17B: Quantification of PDX1 (orange gate) and NKX6.1 (blue gate) protein expressing cells in individual conditions after 9.5 days of differentiation.
Suspension-based differentiations were carried out as follows. Briefly, confluent cultures were dissociated into single cell suspension by incubation with TrypLE (Gibco). […] To induce definitive endoderm differentiation, aggregates were collected 24 hours later in a 50 ml falcon tube, allowed to settle by gravity, washed once with PBS and re-suspended in d1 media (RPMI (Gibco) containing 0.2% FBS, 1:5000 ITS (Gibco), 100 ng/ml Activin A, and 50 ng/ml WNT3a (R&D systems)). Clusters from 3 wells were combined into 2 wells at this point and distributed into fresh low-attachment plates in 5.5 ml d1 media. Media thereafter was changed daily, by removing either 4.5 ml media (at the end of d1) or 5.5 ml media the following days and adding back 5.5 ml fresh media until day 9. After day 9, only 5 ml of media was removed and added daily.
Briefly, spheres were collected and allowed to settle by gravity. Clusters were washed once in PBS and dissociated by gentle pipetting after 12-15 minutes incubation in Accumax (Innovative Cell Technologies). For sorting, cell suspensions were filtered and re-suspended in FACS buffer consisting of phosphate-buffered saline (PBS) (UCSF cell culture facility) containing 2 mM EDTA (Ambion) and 1% BSA (Sigma). Dead cells were excluded by DAPI (Sigma) staining Cell sorting was performed on a FACS Aria II (BD Bioscience). […]

[15] = target: SAPK2/p38 (Homo sapiens, UniProt Q16539); settings: cited from earlier work
[16] = system: MKN45, U87MG, MDA-MB-231, COLO205, and A549 tumor cells; settings: 20 mg/kg-60 mg/kg; c-Met-driven or non-c-Met-driven xenografts; cited from earlier work
[17] = system: Human foreskin fibroblasts (CRL-2097); test: Conversion of human fibroblasts into definitive endodermal progenitor cells (FOXA2 positive colonies); settings: Parnate, RG108 condition

SAPK2/p38, sequence (Q16539 whole entry): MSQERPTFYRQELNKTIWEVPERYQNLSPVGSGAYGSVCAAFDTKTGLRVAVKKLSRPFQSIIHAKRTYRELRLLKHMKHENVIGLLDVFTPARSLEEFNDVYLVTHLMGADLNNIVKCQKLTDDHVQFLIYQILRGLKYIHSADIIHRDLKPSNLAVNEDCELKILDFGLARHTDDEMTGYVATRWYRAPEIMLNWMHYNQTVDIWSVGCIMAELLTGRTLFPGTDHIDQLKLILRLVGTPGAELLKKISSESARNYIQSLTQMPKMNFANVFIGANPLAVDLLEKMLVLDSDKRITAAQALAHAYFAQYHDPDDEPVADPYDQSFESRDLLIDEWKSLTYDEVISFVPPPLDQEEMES
p38 MAPK, sequence (Q16539 whole entry): as above

In the case of “2-Phospho-L-ascorbic acid trisodium salt [pVc]”, the “numbers of Sox17 and Foxa2 single positive and double positive cells” value [1] was “no significant influence”, the “screen result: increase of Pdx1 and/or Nkx6.1 expression” value (from here on “screen result: increase”) [2] was “Confirmed hits” and the “number of insulin+/Pdx1+ double-positive cells” value [3] was “significantly increased”. For the same compound, the “number of Pdx1+/Nkx6.1+ colonies” value [4] was ~4 fold.

In the case of `Cc1cccc(-c2nn(C(=S)Nc3ccccc3)cc2-c2ccnc3ccccc23)n1` [A83-01, 3-(6-Methyl-2-pyridinyl)-N-phenyl-4-(4-quinolinyl)-1H-pyrazole-1-carbothioamide], the “screen result: increase” value [2] was “Confirmed hits”.

In the case of `Cc1cccc(-c2n[nH]cc2-c2ccc3ncccc3n2)n1` [ALK5 inhibitor II, 2-(3-(6-methylpyridine-2-yl)-1H-pyrazol-4-yl)-1,5-naphthyridine], the pIC50 [5] is given as < 4.80.

In the case of `S=C(NCc1ccc2c(c1)OCO2)N1CCN(c2ncnc3c2oc2ccccc23)CC1` [Amuvatinib], the “tyrosine phosphorylation of AXL” value [6] is listed as “inhibits tyrosine phosphorylation of AXL”.

In the case of `Nc1ccccc1NC(=O)CCCCCCC(=O)Nc1ccccc1` [BML-210, N1-(2-aminophenyl)-N8-phenyl-octanediamide], the pIC50 [7] is given as ~4.10.

In the case of `COC(=O)C1=C(C)NC(C)=C([N+](=O)[O-])C1c1ccccc1C(F)(F)F` (stereo not drawn) [BayK-8644, 3-pyridinecarboxylic acid, 1,4-dihydro-2,6-dimethyl-5-nitro-4-(2-(trifluoromethyl)phenyl), methyl ester], the “percentage of C-peptide positive cells, individual supplementation” value [8] was “effective in increasing”, the “number of C-peptide positive cells co-expressing PDX1 and NKX6.1” value [9] was “increased” and the “expression of the INSULIN gene (mRNA)” value ([9]; day 21, compared to DMSO controls) was “promoted expression”.

With `COc1cc2nc(N3CCCN(C)CC3)nc(NC3CCN(Cc4ccccc4)CC3)c2cc1OC` [Bix-01294] the “numbers of Sox17 and Foxa2 single positive and double positive cells” value [1] was “no significant influence” and the “number of Pdx1+/Nkx6.1+ colonies” value [4] was “about 3 fold”.

For `COc1cc(Nc2c(C#N)cnc3cc(OCCCN4CCN(C)CC4)c(OC)cc23)c(Cl)cc1Cl` [Bosutinib], the pIC50 [10] is given as 7.00.

For `CC1(C)NC(=O)C(CCCCCC(=O)[C@H]2CO2)NC(=O)C2CCCN2C(=O)[C@@H](Cc2ccccc2)NC1=O` (stereo partly drawn) [Chlamydocin, (3R)-3-benzyl-6,6-dimethyl-9-[6-[(2R)-oxiran-2-yl]-6-oxohexyl]-1,4,7,10-tetrazabicyclo[10.3.0]pentadecane-2,5,8,11-tetrone], the pIC50 [11] is listed as ~9.82.

In the case of `C[C@H](NC(=O)Cc1cc(F)cc(F)c1)C(=O)N[C@H]1N=C(c2ccccc2)c2ccccc2N(C)C1=O` [Compound E], the pIC50 [12] is listed as 9.52, the “effect on presenilase activity” value [13] is listed as “only weakly affects” and the “percentage of C-peptide positive cells, individual supplementation” value [8] is listed as “effective in increasing”.

For `CC1=C2C[C@H]3[C@@H](CC=C4C[C@@H](O)CC[C@@]43C)[C@@H]2CC[C@]12O[C@@H]1C[C@H](C)CN[C@H]1[C@H]2C` [Cyclopamine], the “generation of PDX1+ cells over base media alone” value ([14]; alone, conditions 2 and 3) was “did not result in enhanced generation”.

For `NC(=O)c1ccc(-c2nc(-c3ccc4c(c3)OCCO4)c(-c3ccccn3)[nH]2)cc1` [D 4476, 4-[4-(2,3-Dihydro-1,4-benzodioxin-6-yl)-5-(2-pyridinyl)-IH-imidazol-2-yl]benzamide], the “selectivity over SAPK2/p38” value [15] is listed as “greater than 20 fold”.

In the case of `CC1NC(=O)C(C)NC(=O)C2CCCN2C(=O)C(CCCCCCC(=O)C2CO2)NC1=O` [HC Toxin, (6R,9S,14aR)-3,6R-dimethyl-9S-(7-((S)-oxiran-2-yl)-7-oxoheptyl)decahydropyrrolo[1,2-a][1,4,7,10]tetraazacyclododecine-1,4,7, 10-tetranone], the pIC50 [11] is given as 7.52.

With `Cc1c(C(=O)Nc2ccc(N3C[C@@H](C)O[C@@H](C)C3)nc2)cccc1-c1ccc(OC(F)(F)F)cc1` [LDE225] the “screen result: increase” value [2] was “Confirmed hits”.

For `Nc1ccccc1NC(=O)c1ccc(CNc2nccc(-c3cccnc3)n2)cc1` [MGCD0103, N-(2-aminophenyl)-4-[[(4-pyridin-3-ylpyrimidin-2-yl)amino]methyl]benzamide], the pIC50 [11] is given as ~7.00.

In the case of `Cn1cnc(-c2cc3nccc(Oc4ccc(NC(=S)NC(=O)Cc5ccccc5)cc4F)c3s2)c1` [MGCD-265], the “tumor growth and c-Met signaling” value [16] is listed as “inhibits tumor growth and c-Met signaling”.

For `Nc1ccccc1NC(=O)c1ccc(CNC(=O)OCc2cccnc2)cc1` [MS-27-275], the pIC50 [11] is listed as 6.00 to 7.00.

With `CCNC(=O)[C@H]1O[C@@H](n2cnc3c(N)ncnc32)C(O)C1O` (stereo partly drawn) [NECA, 5′-N-ethylcarboxamidoadenosine] the “increase of conversion rate over the basal protocol” value ([17]; NECA added to NaB) was 5 fold and the “further increase of conversion rate over the improved condition” value ([17]; added to NaB) was 2 fold.

For `C[S+]([O-])c1ccc(-c2nc(-c3ccc(F)cc3)c(-c3ccncc3)[nH]2)cc1` (stereo not drawn) [SB203580, 4-(4-fluorophenyl)-2-(4-methylsulfinylphenyl)-5-(4-pyridyl)-1H-imidazole], the “number of insulin+/Pdx1+ double-positive cells” value [3] was “significantly increased”.

For `CC(/C=C/C(=O)NO)=C\[C@@H](C)C(=O)c1ccc(N(C)C)cc1` [Trichostatin A, (R,2E,4E)-6-(4-(dimethylamino)benzoyl)-N-hydroxy-4-methylhepta-2,4-dienamide], the pIC50 [11] is given as ~8.74.

With `CC1=C(/C=C/C(C)=C/C=C/C(C)=C/C(=O)O)C(C)(C)CCC1` [retinoic acid] the PDX1 positive progenitors ([14]; days 6-8, alone or in combination (conditions 4, 5, 6), group 1) was > 88%.

— patent publication US11332716B2, “Methods and compositions for producing pancreatic beta cells” (The Regents of the University of California, priority 2015, dated 2022)
